Patent US9012458B2, “Antitumor agent using compounds having kinase inhibitory effect in combination” (Eisai R&D Management Co., Ltd., priority 2010, dated 2015)
Counter-ions that a name gives are not always drawn.

Legend:
Assay type in all cases: in vivo
[1] = test system: human ovarian cancer cell line (A2780); experiment: Combined effect in model animal transplanted with human ovarian cancer cell line (A2780); conditions: A2780 s.c. in nude mouse, Compound A 10 mg/kg, Compound B 100 mg/kg, oral once daily, average ± standard deviation
Protocol: (§1) The human ovarian cancer cell line A2780 (ATCC) was cultured using a 10% FBS-containing RPMI 1640 medium (SIGMA) in a 5% CO2 incubator under the condition of 37° C. When the cells reached a state of approximately 80% confluency, the cells were collected using trypsin-EDTA. To these cells, a Hanks' Balanced Salt Solution containing 50% Matrigel was added to prepare a suspension at a concentration of 5.0×10^7 cells/mL. The cell suspension thus obtained was subcutaneously transplanted at the lateral side of the body of a nude mouse (CAnN.Cg-Foxn1nu/CrlCrlj, Charles River Laboratories Japan, Inc.) in an amount of 0.1 mL, where each group contained six mice. Compound A (10 mg/kg, once daily, for 10 days) and Compound B (100 mg/kg, once daily, for 10 days) were orally administered, either individually or both in a row.
Setting the initial day of administration at Day 0, the major axis and the minor axis of a tumor developed in each mouse were measured using Digimatic caliper (Mitsutoyo Corporation) thereafter on Day 3, 5, 8, and 10.
(§2) The tumor volume and the relative tumor volume were calculated according to the equations below. TV=major axis (mm)×minor axis^2 (mm^2)/2 RTV=TV on the day of measurement/TV on the initial day of administration

[2] = test system: human pancreatic cancer cell line (KP-4); experiment: Combined effect in model animal transplanted with human pancreatic cancer cell line (KP-4); conditions: KP-4 s.c. in nude mouse, Compound A 10 mg/kg, Compound B 100 mg/kg, oral once daily, average ± standard deviation
Protocol: as §1, with “human pancreatic” for “human ovarian”, “line KP-4 (acquired from National Hospital Organization Kyushu Cancer Center)” for “line A2780 (ATCC)”, “at” for “at a concentration of”, “mice. From 11 days after the transplantation,” for “mice.”, “for 17” for “for 10”
(§3) Setting the initial day of administration at Day 0, the major axis and the minor axis of a tumor developed in each mouse were measured using Digimatic caliper (Mitsutoyo Corporation) thereafter on Day 3, 7, 10, 14, and 17.
as §2

[3] = test system: human glioblastoma cell line (U87MG); experiment: Combined effect in model animal transplanted with human glioblastoma cell line (U87MG); conditions: U87MG s.c. in nude mouse, Compound A 10 mg/kg, Compound B 100 mg/kg, oral once daily, average ± standard deviation
Protocol: as §1, with “human glioblastoma” for “human ovarian cancer”, “line (U87MG)” for “line A2780”, “FBS-containing E-MEM” for “FBS-containing RPMI 1640”, “mouse (CAnN.Cg-FOXn1nu/CrlCrlj,” for “mouse (CAnN.Cg-Foxn1nu/CrlCrlj,”, “for 21” for “for 10”
Setting the initial day of administration at Day 0, the major axis and the minor axis of a tumor developed in each mouse were measured using Digimatic caliper (Mitsutoyo Corporation) thereafter on Day 2, 5, 7, 9, 12, 14, 16, 19, and 21.
as §2

[4] = test system: human malignant melanoma cell line (SEKI); experiment: Combined effect in model animal transplanted with human malignant melanoma cell line (SEKI); conditions: SEKI s.c. in nude mouse, Compound A 10 mg/kg, Compound B 100 mg/kg, oral once daily, average ± standard deviation
Protocol: as §1, with “human malignant melanoma” for “human ovarian cancer”, “line SEKI (JCRB Cell bank)” for “line A2780 (ATCC)”, “FBS-containing RPM” for “FBS-containing RPMI”, “at” for “at a concentration of”, “mice. From 11 days after the transplantation,” for “mice.”, “for 17” for “for 10”
as §3, §2

COc1cc2nccc(Oc3ccc(NC(=O)NC4CC4)c(Cl)c3)c2cc1C(N)=O [Compound A, 4-(3-chloro-4-(cyclopropylaminocarbonyl)aminophenoxy)-7-methoxy-6-quinolinecarboxamide mesylate]
RTV (relative tumor volume) Day 3 [1]: 1.92 ± 0.17 | RTV (relative tumor volume) Day 5 [1]: 4.77 ± 0.85 | RTV (relative tumor volume) Day 8 [1]: 9.51 ± 2.44 | RTV (relative tumor volume) Day 10 [1]: 12.37 ± 3.53 | RTV (relative tumor volume) Day 3 [2]: 1.67 ± 0.16 | RTV (relative tumor volume) Day 7 [2]: 2.89 ± 0.74 | RTV (relative tumor volume) Day 10 [2]: 3.77 ± 1.26 | RTV (relative tumor volume) Day 14 [2]: 4.83 ± 1.75 | RTV (relative tumor volume) Day 17 [2]: 5.81 ± 2.17 | RTV (relative tumor volume) Day 2 [3]: 0.95 ± 0.08 | RTV (relative tumor volume) Day 5 [3]: 1.27 ± 0.07 | RTV (relative tumor volume) Day 7 [3]: 1.59 ± 0.16 | RTV (relative tumor volume) Day 9 [3]: 1.85 ± 0.13 | RTV (relative tumor volume) Day 12 [3]: 3.29 ± 0.32 | RTV (relative tumor volume) Day 14 [3]: 4.76 ± 0.49 | RTV (relative tumor volume) Day 16 [3]: 6.19 ± 0.95 | RTV (relative tumor volume) Day 19 [3]: 9.60 ± 1.99 | RTV (relative tumor volume) Day 21 [3]: 11.53 ± 2.57 | RTV (relative tumor volume) Day 3 [4]: 1.71 ± 0.19 | RTV (relative tumor volume) Day 7 [4]: 2.88 ± 0.35 | RTV (relative tumor volume) Day 10 [4]: 3.74 ± 0.53 | RTV (relative tumor volume) Day 14 [4]: 5.06 ± 0.49 | RTV (relative tumor volume) Day 17 [4]: 5.92 ± 0.50

CN1CCN(C2CCN(C(=O)Nc3cc(Oc4ccc(NC(=O)C5(C(=O)Nc6ccc(F)cc6)CC5)c(F)c4)ccn3)CC2)CC1 [Compound B, N-(2-fluoro-4-{[2-({[4-(4-methylpiperazin-1-yl)piperidin-1-yl]carbonyl}amino)pyridin-4-yl]oxy}phenyl)-N′-(4-fluorophenyl)cyclopropane-1,1-dicarboxamide tartrate]
RTV (relative tumor volume) Day 3 [1]: 2.23 ± 0.42 | RTV (relative tumor volume) Day 5 [1]: 7.01 ± 1.54 | RTV (relative tumor volume) Day 8 [1]: 15.70 ± 2.27 | RTV (relative tumor volume) Day 10 [1]: 21.29 ± 2.76 | RTV (relative tumor volume) Day 3 [2]: 1.71 ± 0.26 | RTV (relative tumor volume) Day 7 [2]: 3.33 ± 1.06 | RTV (relative tumor volume) Day 10 [2]: 4.72 ± 1.55 | RTV (relative tumor volume) Day 14 [2]: 6.53 ± 2.19 | RTV (relative tumor volume) Day 17 [2]: 9.05 ± 3.71 | RTV (relative tumor volume) Day 2 [3]: 0.69 ± 0.05 | RTV (relative tumor volume) Day 5 [3]: 0.61 ± 0.05 | RTV (relative tumor volume) Day 7 [3]: 0.56 ± 0.10 | RTV (relative tumor volume) Day 9 [3]: 0.57 ± 0.07 | RTV (relative tumor volume) Day 12 [3]: 0.65 ± 0.08 | RTV (relative tumor volume) Day 14 [3]: 0.73 ± 0.12 | RTV (relative tumor volume) Day 16 [3]: 0.93 ± 0.13 | RTV (relative tumor volume) Day 19 [3]: 1.65 ± 0.37 | RTV (relative tumor volume) Day 21 [3]: 2.23 ± 0.51 | RTV (relative tumor volume) Day 3 [4]: 1.76 ± 0.22 | RTV (relative tumor volume) Day 7 [4]: 2.93 ± 0.57 | RTV (relative tumor volume) Day 10 [4]: 4.06 ± 0.85 | RTV (relative tumor volume) Day 14 [4]: 5.23 ± 0.20 | RTV (relative tumor volume) Day 17 [4]: 5.80 ± 1.35
